This is an account of results in paper PMC10535741, “Styrylpyridinium Derivatives for Fluorescent Cell Imaging” (Pharmaceuticals, 2023).

The data set concerns NIH3T3 (mouse fibroblast) cell line. Briefly: Basal cytotoxicity, neutral red uptake (NRU) assay, with LD50 estimated from IC50. Format: cell-based. The protocol:
The evaluation of the in vitro cytotoxicity (IC50, half maximal inhibitory concentration) of the abovementioned compounds and their structural derivatives was assessed using the standard colorimetric 3-(4,5-dimethylthiazol-2-yl)-2,5-diphenyltetrazolium bromide (MTT) assay on two monolayer tumour cell lines, namely HT-1080 (human connective tissue fibrosarcoma) and MH-22A (mouse hepatocarcinoma). Additionally, the impact of the compound on non-cancerous “normal” cells—mouse fibroblasts (NIH3T3)—was estimated in order to measure the basal toxicity (LD50, median lethal dose). The obtained results were used for investigation of the structure–activity relationships and exploration of the effect of substituents on cellular response and toxicity. The estimated LD50 gives information regarding the compound properties and could potentially be used to select promising compounds by providing a starting dose for in vivo experiments.
To assess basal cytotoxicity, the neutral red uptake (NRU) assay was conducted following a modified version of the standard protocol of Stokes’ [71], as validated by the NICEATM-ECVAM study. The NRU cytotoxicity assay determines the ability of viable cells to incorporate and bind a supravital dye, neutral red (NR).
NIH3T3 cells (9000 cells/well) were cultured in 96-well plates in DMEM medium supplemented with 5% FBS for 24 h. Subsequently, the cells were exposed to the test compounds over a range of seven concentrations (1000 µg/mL, 316 µg/mL, 100 µg/mL, 31 µg/mL, 10 µg/mL, 3.0 µg/mL, and 1.0 µg/mL) for 24 h. Untreated cells were used as a control. After the incubation period, the medium was removed from all plates and a solution of NR was added (250 µL, 0.05 mg/mL NR in DMEM 24 h pre-incubated at 37 °C and then filtered before use through a 0.22 µm syringe filter). The plates were incubated for 3 h, followed by three washes with phosphate-buffered saline (PBS). The cells were then treated with a mixture of ethanol (50%) and water (49%) supplemented with 1% acetic acid. The absorbance of NR was measured using a spectrophotometer multiplate reader (Infinite M1000; Tecan Austria GmbH, Salzburg, Austria) at 540 nm. The optical density (OD) was then calculated using the following formula: ODtreated cells×100/ODcontrol cells.
The IC50 values were calculated using the program Graph Pad Prism® 3.0.
In vitro test results were employed to estimate the starting dose for acute oral systemic toxicity tests in rodents (LD50). The LD50 value was calculated using the in vitro IC50 value and a following formula: logLD50(mM/kg)=0.439×logIC50(mM)+0.621
The value was then converted to mg/kg and the compounds classified into four toxicity categories. Category 1 (highly toxic): LD50 ≤ 5 mg/kg; Category 2 (moderately toxic): 5 < LD50 ≤ 50 mg/kg; Category 3 (slightly toxic): 50 < LD50 ≤ 300 mg/kg; Category 4 (practically non-toxic): 300 < LD50 ≤ 2000 mg/kg.

With `CCCCCCCCCCCC[n+]1ccc(C=Cc2cc3c4c(c2)CCCN4CCC3)cc1.[Br-]` [Compound 6d, 1-dodecyl-4-(2-(2,3,6,7-tetrahydro-1H,5H-pyrido[3,2,1-ij]quinolin-9-yl)vinyl)pyridin-1-ium bromide], the “times higher basal cytotoxicity than compound 7a” value (6d versus 7a) is 6.5 times.

Consider `CCCCCCCCCCCCCCCC[n+]1ccc(C=Cc2cc(OC)c(OC)c(OC)c2)cc1.[Br-]` [Compound 6b], for which the “times more toxic than 6a, basal toxicity” value is 2.8 times. Besides, the “Basal cytotoxicity (NIH3T3) LD50” value (estimated from in vitro NRU IC50 (24 h) by log LD50 = 0.439 x log IC50 + 0.621) was 91 ± 6 mg/kg. Also, the “Basal cytotoxicity (NIH3T3) LD50” value (mouse) is 0.15 mM/kg.

For `CCCCCCCCCCCC[n+]1ccc(C=Cc2cc(OC)c(OC)c(OC)c2)cc1.[Br-]` [Compound 6a, 4-(3,4,5-trimethoxystyryl)-N-dodecylpyridinium bromide], for the setting “ratio of LD50 values”, the “times decrease of basal toxicity of 6a compared with 6d” value was 1.5 times. As to `CCCCCCCCCCCCCCCC[n+]1ccc(C=CC=Cc2cc3c4c(c2)CCCN4CCC3)cc1.[Br-]` [Compound 6e, 1-hexadecyl-4-(4-(2,3,6,7-tetrahydro-1H,5H-pyrido[3,2,1-ij]quinolin-9-yl)buta-1,3-dien-1-yl)pyridin-1-ium bromide], the “times lower basal cytotoxicity than 6d” value (6e versus 6d) is ~ 2.8 times. In addition, the “basal toxicity classification in words” value (from estimated LD50, NIH3T3) is on record as “harmful”.
